Entries after “also recorded” stand apart in the source; their conditions may differ.
Legend:
[1] = biological target: T1, EphB3 (Homo sapiens, UniProt P54753); assay: EphB3 radiometric kinase activity assay (33P ATP filter binding); format: biochemical; settings: for remaining activity at 0.01 µM: 10 nM compound, read-out: EphB3 % act 10 nM; for remaining activity at 0.1 µM: 100 nM compound, read-out: EphB3 % act 100 nM; for remaining activity at 0.03 µM: 30 nM compound, read-out: EphB3 % act 30 nM
T1 sequence (P54753 34-998): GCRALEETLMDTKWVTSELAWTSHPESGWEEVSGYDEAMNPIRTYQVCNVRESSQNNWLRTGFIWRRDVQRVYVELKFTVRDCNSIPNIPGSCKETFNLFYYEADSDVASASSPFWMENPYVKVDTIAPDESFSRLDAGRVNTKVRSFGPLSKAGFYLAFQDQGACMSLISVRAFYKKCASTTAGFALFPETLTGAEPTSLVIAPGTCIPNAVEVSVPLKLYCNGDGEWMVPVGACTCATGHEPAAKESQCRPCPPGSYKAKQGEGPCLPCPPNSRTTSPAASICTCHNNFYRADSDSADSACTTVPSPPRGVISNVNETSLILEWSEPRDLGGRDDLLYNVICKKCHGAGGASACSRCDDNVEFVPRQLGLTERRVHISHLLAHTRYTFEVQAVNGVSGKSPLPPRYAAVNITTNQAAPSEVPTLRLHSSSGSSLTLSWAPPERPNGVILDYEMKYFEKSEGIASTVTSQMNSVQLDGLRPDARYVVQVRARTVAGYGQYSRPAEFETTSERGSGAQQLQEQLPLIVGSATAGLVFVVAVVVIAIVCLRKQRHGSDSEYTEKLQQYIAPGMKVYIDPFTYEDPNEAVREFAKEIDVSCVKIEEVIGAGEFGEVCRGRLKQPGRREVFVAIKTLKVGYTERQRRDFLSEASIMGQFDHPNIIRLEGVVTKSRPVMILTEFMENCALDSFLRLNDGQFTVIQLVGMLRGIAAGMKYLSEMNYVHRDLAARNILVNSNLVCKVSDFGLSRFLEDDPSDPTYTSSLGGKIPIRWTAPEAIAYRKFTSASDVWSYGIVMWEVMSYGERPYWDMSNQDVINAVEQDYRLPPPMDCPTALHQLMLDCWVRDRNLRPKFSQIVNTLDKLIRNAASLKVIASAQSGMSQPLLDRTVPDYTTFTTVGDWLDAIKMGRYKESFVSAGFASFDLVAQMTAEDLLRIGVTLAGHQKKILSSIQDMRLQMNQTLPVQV
Protocol: EphB3 radiometric kinase activity assay. To study the EphB3 kinase activity, a radioactive filter binding assay using 33P ATP was performed as described at the […] International Centre for Kinase profiling. […] The mix was harvested onto P81 filter plates and counts were read on a Topcount NXT.

[2] = Aqueous solubility; format: physicochemical; settings: aqueous medium at pH 7.4 (buffer not specified), pH 7.4, aqueous buffer; read-out: aqueous solubility
[3] = biological target: T2, EphB4 (Homo sapiens, UniProt P54760); assay: Eph receptor kinase activity assay (radiometric), EphB4; format: biochemical; settings: for remaining activity at 0.01 µM: 10 nM compound, read-out: EphB4 % act 10 nM; for remaining activity at 0.1 µM: 100 nM compound, read-out: EphB4 % act 100 nM; for remaining activity at 0.03 µM: 30 nM compound, read-out: EphB4 % act 30 nM
T2 sequence (P54760 16-987): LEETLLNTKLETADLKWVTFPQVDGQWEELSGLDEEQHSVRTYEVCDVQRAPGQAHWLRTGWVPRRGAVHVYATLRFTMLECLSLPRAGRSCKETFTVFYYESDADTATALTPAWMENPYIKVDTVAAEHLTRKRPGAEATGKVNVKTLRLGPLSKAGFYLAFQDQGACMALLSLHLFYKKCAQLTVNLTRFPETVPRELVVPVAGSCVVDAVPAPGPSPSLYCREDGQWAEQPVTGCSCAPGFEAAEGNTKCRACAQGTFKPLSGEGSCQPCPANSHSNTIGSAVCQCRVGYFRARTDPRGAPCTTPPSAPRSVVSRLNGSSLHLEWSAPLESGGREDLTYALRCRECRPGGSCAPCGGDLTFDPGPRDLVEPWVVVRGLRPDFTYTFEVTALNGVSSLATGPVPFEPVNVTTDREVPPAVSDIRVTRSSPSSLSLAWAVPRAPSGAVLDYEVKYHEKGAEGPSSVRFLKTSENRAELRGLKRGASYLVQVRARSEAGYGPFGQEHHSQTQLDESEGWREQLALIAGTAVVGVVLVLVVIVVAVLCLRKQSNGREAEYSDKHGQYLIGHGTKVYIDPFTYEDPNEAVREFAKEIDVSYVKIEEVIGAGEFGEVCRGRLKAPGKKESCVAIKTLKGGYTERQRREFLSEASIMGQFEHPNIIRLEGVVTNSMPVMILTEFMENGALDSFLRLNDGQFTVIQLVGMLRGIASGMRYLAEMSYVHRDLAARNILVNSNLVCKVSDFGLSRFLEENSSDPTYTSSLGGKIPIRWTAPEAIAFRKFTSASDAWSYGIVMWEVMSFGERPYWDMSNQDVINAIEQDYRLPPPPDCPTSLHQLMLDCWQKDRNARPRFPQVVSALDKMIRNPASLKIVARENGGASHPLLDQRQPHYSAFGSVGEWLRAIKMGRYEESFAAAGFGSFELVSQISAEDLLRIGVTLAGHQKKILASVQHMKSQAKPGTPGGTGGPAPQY

[4] = MTT and ATP-viability assays; format: cell-based; settings: 30 μM
[5] = biological target: EphA4 (Homo sapiens, UniProt P54764); assay: Eph receptor kinase activity assay (radiometric), EphA4; format: biochemical; settings: for remaining activity at 0.01 µM: read-out: EphA4 % act 10 nM; for remaining activity at 0.03 µM: 30 nM compound, read-out: EphA4 % act 30 nM; for remaining activity at 0.1 µM: read-out: EphA4 % act 100 nM
Sequence of EphA4 (P54764 20-986): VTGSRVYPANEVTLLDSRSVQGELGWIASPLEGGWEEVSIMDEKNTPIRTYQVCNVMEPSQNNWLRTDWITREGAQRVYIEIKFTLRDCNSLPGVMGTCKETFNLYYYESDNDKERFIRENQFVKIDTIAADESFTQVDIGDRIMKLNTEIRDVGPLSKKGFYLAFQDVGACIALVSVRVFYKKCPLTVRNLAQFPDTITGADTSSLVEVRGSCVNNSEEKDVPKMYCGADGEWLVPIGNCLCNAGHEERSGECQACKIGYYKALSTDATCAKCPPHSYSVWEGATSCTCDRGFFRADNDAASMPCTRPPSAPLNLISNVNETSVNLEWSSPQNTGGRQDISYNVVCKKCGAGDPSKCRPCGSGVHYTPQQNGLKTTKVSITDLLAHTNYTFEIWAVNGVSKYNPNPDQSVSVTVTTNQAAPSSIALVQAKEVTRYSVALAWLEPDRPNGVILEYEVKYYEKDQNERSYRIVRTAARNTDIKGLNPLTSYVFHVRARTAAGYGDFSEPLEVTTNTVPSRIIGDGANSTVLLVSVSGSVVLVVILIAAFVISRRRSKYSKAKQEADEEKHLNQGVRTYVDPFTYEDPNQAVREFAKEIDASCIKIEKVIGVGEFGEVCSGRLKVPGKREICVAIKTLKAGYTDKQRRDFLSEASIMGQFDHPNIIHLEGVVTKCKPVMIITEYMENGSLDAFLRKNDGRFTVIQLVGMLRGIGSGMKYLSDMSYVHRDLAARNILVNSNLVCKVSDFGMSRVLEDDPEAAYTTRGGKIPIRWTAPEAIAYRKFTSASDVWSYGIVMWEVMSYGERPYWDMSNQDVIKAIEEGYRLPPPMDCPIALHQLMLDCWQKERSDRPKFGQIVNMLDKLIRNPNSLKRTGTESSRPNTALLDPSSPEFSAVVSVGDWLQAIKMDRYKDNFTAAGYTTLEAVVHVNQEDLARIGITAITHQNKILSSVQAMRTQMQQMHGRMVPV

[6] = test system: N2A neuronal cells; assay: Neurotoxicity assay of astrocyte-conditioned medium (LDH release); format: cell-based, mouse; settings: ACM from astrocytes pre-treated with compound, LDH release after 24 h
Protocol: (§1) Generation of astrocyte-conditioned medium (ACM). […] After 24 h, cells were extensively washed with 1×PBS, and incubated with fresh astrocyte complete medium for 48 h. Supernatants were spun down and kept at −80° C. until tested in migration and neurotoxicity assays.
Neurotoxicity Assay. N2A neuronal cells (#CCL-131, ATCC) were plated and pre-activated with 100 ng/mL mouse IFNγ (#485-MI-100; R&D Systems) for 24 h.
Thereafter, after extensive washing with 1×PBS, medium was replaced with ACM and after 24 h the supernatant was harvested for cytotoxicity evaluation by measuring LDH release with CytoTox 96 nonradioactive cytotoxicity assay kit (#G1780, Promega) following the manufacturer's protocol.

[7] = test system: splenic CD11b+ monocytes; assay: Monocyte migration assay with astrocyte-conditioned medium; format: cell-based, mouse; settings: ACM from astrocytes pre-treated with compound
Protocol: as §1
Monocyte Migration Assay. Monocytes were purified from spleens from C57BL/6J mice using CD11b Microbeads (#130-049-601, Miltenyi) following the manufacturer's instructions. 100,000 monocytes were seeded in the upper chamber of a 24-well cell culture transwell, with a 5 μm pore size (#3421, Thermo Fisher Scientific), containing 300 μL of astrocyte-conditioned medium (as detailed earlier) in the bottom chamber. After 3 h incubation at 37° C. in 5% CO2, cells were collected from the lower chamber after shaking and accutase solution incubation (#A6964, Sigma-Aldrich) and quantified by FACS.

[8] = test system: astrocytes; assay: Mitochondrial ROS measurement (MitoSOX) in astrocytes; format: cell-based, mouse; settings: Rotenone and Antimycin A given together
Protocol: Mitochondrial ROS measurement. 50,000 astrocytes were seeded per well in 96-well black plates and rested for 2 days in complete medium, followed by activation or inhibitor pretreatment for 24 h. MitoSOX red (Thermo Fisher Scientific, #M36008) was used to stain for mitochondrial ROS for 10 min following the manual and the signal was detected on Infinite M1000 PRO Microplate Reader (Tecan). The fluorescent signal was normalized to cell number estimated using CyQUANT cell proliferation assay kit (Invitrogen, #C7026) first and then compared to control group for data analysis.

[9] = test system: PI3K/AKT/mTOR signaling in astrocytes; assay: Western blot of PI3K/AKT/mTOR/NF-κB signaling in primary murine astrocytes; format: cell-based, mouse; settings: astrocytes activated 30 minutes with TNFα and IL-1β
Protocol: Mouse primary astrocyte cultures. […] The cell suspension was then cultured at 37° C. in humidified 5% CO2 on poly-L-Lysine (#P4707, Sigma-Aldrich) pre-coated cell culture flasks. Medium was replaced every 3-5 days. The cells reached confluence after 7-10 days. Microglia were separated by shaking the glia culture at 225 rpm at 37° C. for at least 3 h and washing extensively with 1×PBS. Astrocytes were detached by mild trypsinization with Trypsin-EDTA (0.05%) at 37° C. and plated. […] Both cell types were then cultured separately for downstream procedures. […] Finally, microglia and astrocytes of each condition where magnetically separated as before and lysed for downstream gene expression analysis.
SDS-PAGE and Western blot. […] Membranes were blocked in 10% skimmed milk (#M0841, Lab Scientific) in TBS-T (#IBB-180-2L, Boston BioProducts). Primary antibodies were incubated ON at 4° C. and secondary 30 minutes at RT.
HRP-conjugated blots were developed using the KwikQuant imaging system and KwikQuant western blot detection kit (#R1004 Kindle Biosciences).

[10] = biological target: EphA2 (Homo sapiens, UniProt P29317); assay: Eph receptor kinase activity assay (radiometric), EphA2; format: biochemical; settings: for remaining activity at 0.01 µM: 10 nM compound, read-out: EphA2 % act 10 nM; for remaining activity at 0.03 µM: 30 nM compound, read-out: EphA2 % act 30 nM; for remaining activity at 0.1 µM: 100 nM compound, read-out: EphA2 % act 100 nM
Sequence of EphA2 (P29317 24-976): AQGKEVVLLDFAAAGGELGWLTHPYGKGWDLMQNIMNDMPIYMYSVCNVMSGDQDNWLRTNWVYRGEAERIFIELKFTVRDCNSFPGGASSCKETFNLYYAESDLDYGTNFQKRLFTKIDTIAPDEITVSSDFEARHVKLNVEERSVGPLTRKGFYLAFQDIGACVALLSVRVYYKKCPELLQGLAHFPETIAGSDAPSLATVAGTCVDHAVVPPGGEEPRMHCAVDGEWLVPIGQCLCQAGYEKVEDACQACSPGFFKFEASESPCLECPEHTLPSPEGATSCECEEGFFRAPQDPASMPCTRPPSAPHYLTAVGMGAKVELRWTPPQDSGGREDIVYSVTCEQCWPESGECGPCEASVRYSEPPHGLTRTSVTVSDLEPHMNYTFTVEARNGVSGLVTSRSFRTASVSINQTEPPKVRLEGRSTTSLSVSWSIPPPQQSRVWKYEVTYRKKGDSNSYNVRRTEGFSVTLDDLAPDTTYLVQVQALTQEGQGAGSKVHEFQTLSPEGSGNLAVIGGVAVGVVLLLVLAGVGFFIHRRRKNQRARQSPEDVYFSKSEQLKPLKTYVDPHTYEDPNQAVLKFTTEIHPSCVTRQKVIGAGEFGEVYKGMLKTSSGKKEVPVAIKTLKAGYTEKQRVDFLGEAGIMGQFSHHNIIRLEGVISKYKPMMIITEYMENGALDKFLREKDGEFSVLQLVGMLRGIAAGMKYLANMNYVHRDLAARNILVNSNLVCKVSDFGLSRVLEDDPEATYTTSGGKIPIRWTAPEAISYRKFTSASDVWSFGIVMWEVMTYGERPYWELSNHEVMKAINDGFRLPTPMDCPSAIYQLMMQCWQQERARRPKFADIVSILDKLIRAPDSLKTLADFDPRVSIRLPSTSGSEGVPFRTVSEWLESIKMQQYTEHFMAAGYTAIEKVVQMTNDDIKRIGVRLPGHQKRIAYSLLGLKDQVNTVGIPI

SMILES	remaining activity at 0.01 µM [1]	remaining activity at 0.1 µM [1]	remaining activity at 0.01 µM [3]	remaining activity at 0.1 µM [3]	remaining activity at 0.03 µM [1]	remaining activity at 0.03 µM [3]	remaining activity at 0.01 µM [10]	remaining activity at 0.03 µM [10]	remaining activity at 0.1 µM [10]	remaining activity at 0.01 µM ([5]; 10 nM compound)	remaining activity at 0.03 µM [5]	remaining activity at 0.1 µM ([5]; 100 nM compound)	also measured
O=C(Nc1ccccc1Cl)c1cnc2ccc(C3CCNCC3)cn12 [A-38, N-(2-chlorophenyl)-6-(piperidin-4-yl)imidazo[1,2-a]pyridine-3-carboxamide]	37%	14%	68%	9%	–	–	–	–	–	–	–	–	remaining activity at 0.3 µM ([1]; 300 nM compound, read-out: EphB3 % act 300 nM): 7%; solubility [2]: > 10000 µg/mL; remaining activity at 0.3 µM ([3]; 300 nM compound, read-out: EphB4 % act 300 nM): 3%; cytotoxicity in MTT and ATP-viability assays [4]: no cytotoxicity; EphA4 % act 10 nM ([5]; 10 nM compound): 32%; EphA4 % act 100 nM ([5]; 100 nM compound): 14%; EphA4 % act 300 nM ([5]; 300 nM compound): 9%
O=C(CCl)Nc1ccc2c(Nc3cc(O)ccc3Cl)ncnc2c1 [C9]	–	–	–	–	–	–	–	–	–	–	–	–	ACM neurotoxic activity [6]: decrease in neurotoxicity; also recorded: reduced ACM neurotoxic; ACM chemoattractant activity [7]: reduced ACM neurotoxic and chemoattractant activity
C=C(C)[C@H]1Cc2c(ccc3c2O[C@@H]2COc4cc(OC)c(OC)cc4[C@@H]2C3=O)O1 [Rotenone, reference compound]	–	–	–	–	–	–	–	–	–	–	–	–	mitochondrial ROS levels [8]: increases mitochondrial ROS levels
FC(F)c1nc2ccccc2n1-c1nc(N2CCOCC2)nc(N2CCOCC2)n1 [ZSTK474, reference compound]	–	–	–	–	–	–	–	–	–	–	–	–	phosphorylation of AKT [9]: suppressed
COc1ccc(Cl)c(NC(=O)c2cnc3ccc(C4CCNCC4)cn23)c1 [compound 118, N-(2-Chloro-5-methoxyphenyl)-6-(piperidin-4-yl)imidazo[1,2-a]pyridine-3-carboxamide]	116%	91.4%	97.4%	66.5%	73.9%	97.5%	104%	83.5%	82.1%	87%	55.9%	47.3%	IC50 ([1]; Table 3, Example 13, read-out: EphB3 (nM) IC50): 630 nM; IC50 ([3]; Table 3, Example 13): 407 nM; IC50 ([10]; Table 3, Example 13): 288 nM; IC50 ([5]; Table 3, Example 13): 57 nM
CN(C)CC(=O)N1CCC(c2ccc3ncc(C(=O)Nc4ccccc4Cl)n3c2)CC1 [compound 119, N-(2-Chlorophenyl)-6-(1-(dimethylglycyl)piperidin-4-yl)imidazo[1,2-a]pyridine-3-carboxamide]	116%	78.3%	87.2%	76.3%	90.3%	75.9%	71.3%	61.2%	45.1%	80.3%	74.2%	72.8%	–
